# Results taken from paper PMC6586795 (Nature Communications, 2019).
# Biological target: T1, Drosophila melanogaster dopamine transporter (dDAT) (Drosophila melanogaster, UniProt Q7K4Y6)
# T1 construct: gene DAT; Full-length wild-type dDAT with a C-terminal thrombin site and 8 histidine-tag
# Assay: [3H]nisoxetine saturation binding, scintillation proximity assay on purified dDAT
# T1 sequence (Q7K4Y6 whole entry): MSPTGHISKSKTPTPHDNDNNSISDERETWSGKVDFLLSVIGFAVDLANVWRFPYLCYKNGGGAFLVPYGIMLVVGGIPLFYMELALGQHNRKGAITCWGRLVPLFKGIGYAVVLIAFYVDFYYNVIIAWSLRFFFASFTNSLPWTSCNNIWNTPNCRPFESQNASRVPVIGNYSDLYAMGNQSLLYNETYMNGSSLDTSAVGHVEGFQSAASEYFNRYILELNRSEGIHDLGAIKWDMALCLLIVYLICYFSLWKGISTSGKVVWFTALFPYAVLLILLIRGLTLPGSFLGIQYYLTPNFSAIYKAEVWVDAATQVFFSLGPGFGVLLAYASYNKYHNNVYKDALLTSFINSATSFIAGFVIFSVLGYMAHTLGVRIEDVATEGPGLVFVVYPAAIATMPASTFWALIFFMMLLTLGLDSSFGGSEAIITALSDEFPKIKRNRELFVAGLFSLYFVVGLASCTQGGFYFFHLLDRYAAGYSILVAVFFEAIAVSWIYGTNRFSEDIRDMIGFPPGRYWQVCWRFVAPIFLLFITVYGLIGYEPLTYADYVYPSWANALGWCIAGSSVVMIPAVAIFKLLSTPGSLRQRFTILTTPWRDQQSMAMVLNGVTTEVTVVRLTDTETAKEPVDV
structure (smiles),measurement,value
CNCCC(Oc1ccccc1OC)c1ccccc1 (stereo not shown) [nisoxetine],Kd,80 ± 6 nM
